Source: patent publication US6455507B1, “Benzimidazole derivatives” (SmithKline Beecham Corporation, priority 1997, dated 2002)

Legend:
[1] = test system: HCMV strain AD169; test: Human Cytomegalovirus Assay (HCMV DNA hybridization); assay type: cell-based; conditions: HCMV strain AD169 on MRC5 cell monolayers, 5 days incubation, antiviral effect from HCMV DNA by quantitative hybridization
Procedure: HCMV strain AD169 was grown on monolayers of human embryonic lung cells (MRC5 cells) in 96 well plates. After infection of the cells at a ratio of approximately 0.01 infectious virus particles per cell, the compounds to be tested were added to selected wells at six different concentrations, each in triplicate. The same concentrations of compound were also applied to wells containing monolayers of uninfected cells in order to assess compound cytotoxicity. The plates were incubated for 5 days, and the minimum cytotoxic dose was estimated from microscopic examination. The IC50 for antiviral effect was estimated from measurements of HCMV DNA in each well by blotting and quantitative specific DNA hybridization, similar to the method of Gadler (Antimicrob. Agents Chemother. 1983, 24, 370-374).

| Compound | IC50 [1] | melting point | IC50 ([1]; Human betaherpesvirus 5, 120 h) |
| --- | --- | --- | --- |
| 2-Bromo-5,6-dichloro/4-fluoro-1-beta-D-ribopyranosyl-1H-benzimidazole [Example 24] | 0.9 µM | – | – |
| O[C@@H]1CCCC[C@H]1n1c(Br)nc2cc(Cl)c(Cl)cc21 (racemic) [Example 45, (±)-trans-2-(2-Bromo-5,6-dichloro-1H-benzimidazol-1-yl)cyclohexanol] | – | 201 to 202 °C | – |
| O[C@@H]1CCCC[C@H]1n1c(NC2CC2)nc2cc(Cl)c(Cl)cc21 (racemic) [Example 46, (±)-trans-2-[5,6-Dichloro-2-(cyclopropylamino)-1H-benzimidazol-1-yl]cyclohexanol] | – | 149 to 151 °C | – |
| CC(=O)O[C@@H]1[C@H](OC(C)=O)[C@H](OC(C)=O)CO[C@H]1n1c(Br)nc2cc(Cl)c(Cl)cc21 [Example 1, 2-Bromo-5,6-dichloro-1-(2,3,4-tri-O-acetyl-beta-D-ribopyranosyl)-1H-benzimidazole] | – | 100 to 110 °C | 1 µM |
| O[C@@H]1[C@H](O)[C@H](O)CO[C@H]1n1c(Br)nc2cc(Cl)c(Cl)cc21 [Example 2, 2-Bromo-5,6-dichloro-1-beta-D-ribopyranosyl-1H-benzimidazole] | – | 175 °C (dec.) | 0.7 µM |
| CC(C)Nc1nc2cc(Cl)c(Cl)cc2n1[C@@H]1OC[C@@H](O)[C@@H](O)[C@H]1O [Example 3, 5,6-Dichloro-N-1(1-methylethyl)-1-beta-D-ribopyranosyl-1H-benzimidazole-2-amine] | 22 µM | – | – |
| CC(=O)O[C@@H]1[C@H](OC(C)=O)[C@@H](n2c(Br)nc3cc(Cl)c(Cl)cc32)OC[C@@H]1OC(C)=O [Example 4, 2-Bromo-5,6-dichloro-1-(2,3,4-tri-O-acetyl-beta-L-ribopyranosyl)-1H-benzimidazole] | – | 110 °C | – |
| Cc1cc2nc(Br)n([C@@H]3OC[C@@H](O)[C@@H](O)[C@H]3O)c2cc1Cl [Example 13, 2-Bromo-6-chloro-5-methyl-1-beta-D-ribopyranosyl-1H-benzimidazole] | – | 170 to 175 °C (dec.) | 6 µM |
| OC[C@@H]1OC[C@H](n2c(NC3CC3)nc3cc(Cl)c(Cl)cc32)C[C@H]1O [Example 39, (3R,5R,6S)-5,6-Dichloro-2-(cyclopropylamino)-1-(tetrahydro-5-hydroxy-6-(hydroxymethyl)2H-pyran-3-yl)-1H-benzimidazole] | – | 98 to 99 °C | – |
| OC[C@H]1OC[C@@H](n2c(Br)nc3cc(Cl)c(Cl)cc32)[C@H](O)[C@@H]1O [Example 40, (3R,4S,5S,6R)-2-Bromo-5,6-dichloro-1-(tetrahydro-4,5-dihydroxy-6-(Hydroxymethyl)-2H-pyran-3-yl)-1H-benzimidazole] | – | 207 to 209 °C | – |
| OC[C@H]1OC[C@@H](n2c(NC3CC3)nc3cc(Cl)c(Cl)cc32)[C@H](O)[C@@H]1O [Example 41, (3R,4S ,5S ,6R)-5,6-Dichloro-2-(cyclopropylamino)-1-(tetrahydro-4,5-dihydroxy-6-(hydroxymethyl)-2H-pyran-3-yl)-1H-benzimidazole] | – | 244 °C (dec.) | – |
| OC[C@@H]1OC[C@H](n2c(Br)nc3cc(Cl)c(Cl)cc32)[C@@H](O)[C@H]1O [Example 42, (3S,4R,5R,6S)-2-Bromo-5,6-dichloro-1-(tetrahydro-4,5-dihydroxy-6-(hydroxymethyl)-2H-pyran-3-yl)-1H-benzimidazole] | – | 207 to 208 °C | – |
| OC[C@@H]1OC[C@H](n2c(NC3CC3)nc3cc(Cl)c(Cl)cc32)[C@@H](O)[C@H]1O [Example 43, (3S,4R,5R,6S)-5,6-Dichloro-2-(cyclopropylamino)-1-(tetrahydro-4,5-dihydroxy-6-(hydroxymethyl)-2H-pyran-3-yl)-1H-benzimidazole] | – | 164 °C | – |
| O[C@H]1[C@H](O)[C@@H](n2c(Br)nc3cc(Cl)c(Cl)cc32)OC[C@@H]1O [Example 57, 2-Bromo-5,6-dichloro-1-beta-L-xylopyranosyl-1H-benzimidazole] | – | 164 to 165 °C | – |
